Seven compounds from patent publication US10730849B2, “Benzo[b]thiophene compounds as STING agonists” (MERCK SHARP & DOHME CORP., priority 2016, dated 2020) can be followed below.

By EC50 is commonly meant the concentration at which the effect is half-maximal. A low value points to greater potency. One may read the inhibition as the share of the control response that was lost under treatment.

The test system of assay [1] is THP1 cells. Description: IFN-β secretion in THP1 cell culture (5 h). The note with it: relative to 30 uM cGAMP. Type of assay: cell-based, human. How it is done: The ability of compounds to stimulate the secretion of interferon-beta from THP1 cells was measured using a human IFN-3 AlphaLISA kit (Perkin Elmer, Cat. No. AL265F). The basic protocol is as follows:
The cell viability and count was ascertained using a Beckman Coulter V-Cell XR cell counter. The cells suspension was centrifuged at 200×g for 5 min at RT. Cells were resuspended to a density of 0.8×10^6/mL in 37° C. assay medium. Subsequent liquid transfers were performed using either a Matrix electronic multichannel pipette or an Agilent Bravo Automated Liquid Handling Platform.
The assay was started by dispensing 40 μL of the previously prepared cell suspension into the wells of the plate containing compounds. After 5 h incubation at 37° C., 5% CO2 in a humidified atmosphere, the plate of cells and compounds was centrifuged at 200×g for 5 min at RT. […] To these supernatant-containing wells was added 10 μL of 5× Anti-Analyte Acceptor beads ([…] of AlphaLISA HiBlock Buffer) and incubated for 30 min at RT while shaking on an orbital plate shaker. To each well was added 10 μL of 5× Biotinylated Antibody Anti-analyte (5 nM in AlphaLISA HiBlock Buffer) and incubated on an orbital plate shaker for 60 min at RT or overnight at 4° C. To each well was added 25 μL of 2× SA-Donor beads ([…] in AlphaLISA HiBlock Buffer) and incubated for 30-45 min at RT in the dark while shaking on an orbital plate shaker. The plate was then read on a Perkin Elmer Envision (λex=680 nm, […]). The percent effect of the AlphaLISA signal at each compound concentration was calculated based on 30 uM cGAMP positive controls and 0.3% DMSO negative controls. The plot of percent effect versus the log of compound concentration was fit with a 4-parameter concentration response equation to calculate EC50 values.
Compounds of the disclosure were evaluated for IFN-3 secretion in THP1 cell culture as described above.

Assay [2] concerns the target full-length WT STING (Homo sapiens (Human), UniProt Q86WV6, H232R). The assay is described as follows: 3H-cGAMP filtration binding assay (WT STING). The conditions noted are these: for EC50: competition with tritiated cGAMP, WT STING membrane. The text has this:
The ability of compounds to bind STING is quantified by their ability to compete with tritiated cGAMP ligand for human STING receptor membrane using a radioactive filter-binding assay. The binding assay employs STING receptor obtained from Trichoplusia ni cell membranes (T. ni; Expression Systems, cat #94-002F, www.expressionsystems.com) overexpressing full-length WT STING and tritiated cGAMP ligand.
The basic WT STING filtration assay protocol is as follows:
The filter plates were then dried at 55° C. for 30 min using a pressurized VWR oven before 30 uL of ULTIMA GOLD F scintillate was added to each well. Tritium levels for each reaction well were then measured using a PerkinElmer TopCount plate reader.
(§1) After normalization to controls, the percent activity for each compound concentration was calculated by measuring the amount of remaining radioactivity. The plot of percent activity versus the log of compound concentration was fit with a 4-parameter dose response equation to calculate EC50 values.

For assay [3], the target named is full-length HAQ STING (Homo sapiens (Human), UniProt Q86WV6, G230A/H232R/R293Q/R71H). Description: 3H-cGAMP filtration binding assay (HAQ STING). The note with it: competition with tritiated cGAMP, HAQ STING membrane.
full-length HAQ STING, sequence (Q86WV6 other isoform, or with tags, fused parts or gaps, stated change not applied): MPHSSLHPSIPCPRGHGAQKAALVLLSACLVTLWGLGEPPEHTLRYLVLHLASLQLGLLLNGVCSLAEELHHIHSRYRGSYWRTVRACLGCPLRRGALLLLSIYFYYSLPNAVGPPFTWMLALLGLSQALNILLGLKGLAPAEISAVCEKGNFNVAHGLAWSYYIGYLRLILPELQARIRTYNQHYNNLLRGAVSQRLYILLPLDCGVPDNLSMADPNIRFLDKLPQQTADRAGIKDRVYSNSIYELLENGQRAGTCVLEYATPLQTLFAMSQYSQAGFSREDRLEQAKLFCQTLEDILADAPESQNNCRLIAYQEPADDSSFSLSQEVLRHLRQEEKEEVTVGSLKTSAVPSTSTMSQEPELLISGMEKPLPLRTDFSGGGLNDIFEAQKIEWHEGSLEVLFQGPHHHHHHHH
From the text: The ability of compounds to bind STING is quantified by the ability to compete with tritiated cGAMP ligand for human STING receptor membrane using a radioactive filter-binding assay. The binding assay employs STING receptor obtained from Hi-Five cell membranes overexpressing full-length HAQ STING prepared in-house and tritiated cGAMP ligand also purified in-house.
The ability of compounds to bind STING is quantified by their ability to compete with tritiated cGAMP ligand for human STING receptor membrane using a radioactive filter-binding assay. The binding assay employs STING receptor obtained from Trichoplusia ni cell membranes (T. ni; Expression Systems, cat #94-002F, www.exressionsystems.com) overexpressing full-length HAQ STING and tritiated cGAMP ligand.
The basic HAQ STING filtration assay protocol is as follows:
Compound and membrane then preincubated for 60 min at RT to allow compound binding to equilibrate. Following equilibration, 8 nM of [^3H]c-GAMP ligand was prepared by diluting into assay buffer, and 50 uL of this working stock was then manually added to each well of the assay plate. […] The filter plates were then dried at 55° C. for 30 min using a pressurized oven before 30 uL of ULTIMA GOLD F scintillate was added to each well. Tritium levels for each reaction well were then measured using a PerkinElmer TopCount plate reader.
as §1

Each structure is given as a SMILES string.

full-length WT STING, sequence (Q86WV6 other isoform, or with tags, fused parts or gaps H232R (already in the parent)): as the sequence (Q86WV6 other isoform, or with tags, fused parts or gaps, stated change not applied) above, with H71R, A230G, Q293R counted along it

For `COCC(CC(=O)c1cc2cc(OC)c(OC)cc2s1)C(=O)O` (stereo not drawn) [Example 17, 4-(5,6-Dimethoxybenzo[b]thiophen-2-yl)-2-(methoxymethyl)-4-oxobutanoic acid], the “% Effect at 30 μM relative to 2’3’-cGAMP” value in assay [1] is on record as 21%. Also, the concentration giving a half-maximal response (EC50) in assay [2] came to 14.8 µM; in assay [3] it was 5.87 µM.
Take `CCOC(=O)C(C)(O)CC(=O)c1cc2cc(OC)c(OC)cc2s1` (stereo not drawn) [Example 48, Ethyl 4-(5,6-dimethoxybenzo[b]thiophen-2-yl)-2-hydroxy-2-methyl-4-oxobutanoate]: the “% Effect at 30 μM relative to 2’3’-cGAMP” value in assay [1] was determined as 71%. In addition, testing at 20 µM in assay [2] (WT STING, compound at 20 uM) gave an inhibition of 23%. Besides, the half-maximal effective concentration (EC50) in assay [3] stood at 19.2 µM.
Consider `C[C@@H](CC(=O)c1cc2cc(Cl)c(Br)cc2s1)C(=O)O` [Example 32, (S)-4-(6-bromo-5-chlorobenzo[b]thiophen-2-yl)-2-methyl-4-oxobutanoic acid], for which the “% Effect at 30 μM relative to 2’3’-cGAMP” value in assay [1] stood at 24%. Moreover, the EC50 came to 17 µM in assay [2] and 3.63 µM in assay [3].
On to `COc1cc2cc(C(=O)CCC(=O)O)sc2cc1Br` [Example 9, 4-(6-Bromo-5-methoxybenzo[b]thiophen-2-yl)-4-oxobutanoic acid], for which the “% Effect at 30 μM relative to 2’3’-cGAMP” value in assay [1] was determined as 298%. Further, the EC50 in assay [2] stood at 10.9 µM; in assay [3] it was 2.58 µM.
Turning to `COc1cc2sc(C(=O)C[C@H](C)C(=O)O)cc2cc1Br` [Example 24, (S)-4-(5-Bromo-6-methoxybenzo[b]thiophen-2-yl)-2-methyl-4-oxobutanoic acid], in assay [1], the “% Effect at 30 μM relative to 2’3’-cGAMP” value came to 214%. Further, the results for the EC50 in assay [2] and in assay [3] were 8.54 µM and 2.64 µM, respectively.
For the compound `C=Cc1cc2sc(C(=O)CCC(=O)O)cc2cc1OC` [Example 8, 4-(5-Methoxy-6-vinylbenzo[b]thiophen-2-yl)-4-oxobutanoic acid], the “% Effect at 30 μM relative to 2’3’-cGAMP” value in assay [1] worked out at 260%. In addition, the concentration for a half-maximal effect (EC50) came to 15.5 µM in assay [2] and 6.77 µM in assay [3].
In the same order, the values of `COc1cc2sc(C(=O)C[C@H](C)C(=O)O)cc2cc1Cl` [Example 28, (S)-4-(5-chloro-6-methoxybenzo[b]thiophen-2-yl)-2-methyl-4-oxobutanoic acid] are 86%, 9.26 µM and 1.95 µM.
